Measurements taken from patent publication US20070207975A1, “Materials and methods for treating and preventing Her-2/neu overexpressing, FAS-elevated cancer cells” (EVANSTON NORTHWESTERN HEALTHCARE, priority 2006, published 2007).

Columns and labels:
[1] = tested on: Mutant Her-2/neu promoter; assay: Luciferase reporter driven by Her-2/neu promoter with mutated PEA3 binding site; type: cell-based, human; settings: for Luciferase activity relative to vehicle-treated wild-type promoter cells: mutant promoter, GLA 10 μg/mL for 24 hours
Description: FIG. 11. Luciferase activity in transiently transfected cells. Luciferase activity was assayed in cells that were transiently transfected with a pGL2-Luc construct containing a luciferase reporter gene under the control of a Her-2/neu promoter fragment containing a wild-type (top panel, left) or mutant (top panel, right) PEA3 binding site as described herein. The magnitude of activation in Her-2/neu promoter-luciferase-transfected cells was determined after normalization of the luciferase activity obtained in cells co-transfected with equivalent amounts of the empty pGL2-Luciferase vector lacking the Her-2/neu promoter (-luciferase) and the internal control plasmid pRL-CMV. This control value was used to calculate the relative change in the transcriptional activities of Her-2/neu-promoter-luciferase-transfected cells in response to treatments after normalization to pRL-CMV. The activity of the wild-type promoter in untreated control cells was defined as 100%. […] One-factor ANOVA was used to analyzed differences in the percentages of luciferase activity between the various treatment groups.
The luciferase activities reported in Table 3 were assayed in cells that were transiently transfected with a pGL2-luciferase (Promega Inc., Madison, Wis.) construct containing a luciferase reporter gene under the control of a Her-2/neu promoter fragment containing a wild-type or mutant PEA3 binding site, as previously described by Xing et al. (36), incorporated herein by reference. Cells were transfected using FuGENE 6 transfection reagent (Roche Biochemicals, Indianapolis, Ind.) as directed by the manufacturer and were treated with vehicle (ethanol; EtOH) or γ-linolenic acid (10 μg/mL for 24 hours). Luciferase activity from cell extracts was detected with a Luciferase Assay System (Promega Inc.).
To examine whether the increased PEA3 levels might mediate the inhibition of Her-2/neu transcription in GLA-treated cells, the effect of GLA on transcription from a Her-2/neu promoter bearing a mutated PEA3 binding sequence, at −33 to −28, that is known to abolish PEA3 binding (36, incorporated herein by reference) was investigated. For this analysis we used the same luciferase reporter gene construct described above but containing the HER-2/neu promoter mutation at the PEA3 binding site (5′-GAG GAA-3′ at −33 to −28 changed to 5′-GAG CTC-3′).
To conduct Her-2/neu promoter activity assays, cells were initially transfected using FuGENE 6 transfection reagent (Roche Biochemicals, Indianapolis, Ind.) as directed by the manufacturer. Overnight-serum starved cancer cells seeded into 24-well plates (˜5×10^4 cells/well) were transfected in low-serum (0.1% FBS) media with 1.5 μg/well of the pGL2-luciferase (Promega, Madison, Wis.) construct containing a luciferase reporter gene driven by either an intact (Her-2/neu wild-type PEA3-binding site-luciferase) or by a mutated (Her-2/neu mutated PEA3-binding site-luciferase) Her-2/neu promoter fragment along with […] of the internal control plasmid pRL-CMV, which was used to correct for transfection efficiency. […] Approximately 24 hours after treatments, luciferase activities from cell extracts were detected with a luciferase Assay System following manufacturer's instructions (Promega, Madison, Wis., USA) using a Victor^2™ Multilabel Counter (Perkin-Elmer Life Sciences).

PEA3 = assay: Immunoblot analysis of PEA3 protein; type: cell-based, human
Description: […] Louis, Mo.). […] […] A) Cell surface expression of Her-2/neu protein in BT-474 and SK-Br3 cells was determined by flow cytometry using a mouse anti-Her-2/neu antibody directed against the extracellular domain of the p185^Her-2/neu oncoprotein (clone Ab-5; Oncogene Research Products; San Diego, Calif.). Briefly, after GLA or control treatment, cells were washed, harvested, resuspended in phosphate-buffered saline (PBS) containing 1% FBS, and incubated with 5 μg/mL Ab-5 antibody for 1 hour at 4° C. The cells were washed again and then incubated with a fluorescein isothiocyanate (FITC)-conjugated anti-mouse IgG secondary antibody (Jackson ImnunoResearch Laboratories, West Grove, Pa.) diluted 1:200 in cold PBS containing 1% FBS for 45 minutes at 4° C. The cells were washed once more in cold PBS, and flow cytometric analysis was performed with a FACScalibur flow cytometer (Becton Dickinson, San Diego, Calif.) equipped with Cell Quest Software (Becton Dickinson). […] As a control for nonspecific immunofluorescence, cells were stained with the secondary antibody alone (solid black line). The mean fluorescence signal associated with cells for labeled p185^Her-2/neu was quantified using the Geo Mean (GM) fluorescence parameter provided with the software. […] B) Immunoblot analysis of Her-2/neu and PEA3 proteins in control- and GLA-treated BT-474 and SK-Br3 cells. Cells were washed twice with PBS and then lysed in buffer (20 m M Tris [pH 7.5], 150 m M NaCl, 1 mM EDTA, 1 m M EGTA, 1% Triton X-100, 2.5 m M sodium pyrophosphate, 1 mM β-glycerolphosphate, 1 mM Na3VO4, 1 μg/ml leupeptin, 1 mM phenylmethylsulfonyl fluoride) for 30 minutes on ice. Equal amounts of protein (10 μg) were heated in sodium dodecyl sulfate (SDS) sample buffer for 10 minutes at 70° C., subjected to electrophoresis on either 3-8% NuPAGE Tris-acetate (p185^Her-2/neu) or 10% SDS-polyacrylamide gel electrophoresis (PEA3) gels, and transferred to nitrocellulose membranes. Nonspecific binding was blocked by incubation for 1 hour with TBS-T (25 mM Tris-HCl [pH 7.5], 150 mM NaCl, and 0.05% Tween-20) containing 5% nonfat dry milk. The treated filters were washed in TBS-T and then incubated with primary antibodies, anti-p185^Her-2/neu mouse monoclonal antibody—Clone Ab-3 [Oncogene Research Products, San Diego, Calif.] and anti-PEA3 mouse monoclonal antibody—sc-113 [Santa Cruz Biotechnology, Santa Cruz, Calif.], for 2 hours in TBS-T containing 5% (w/v) nonfat dry milk. The membranes were washed in TBS-T and horseradish peroxidase—conjugated secondary antibodies in TBS-T were added for 45 minutes. Immunoreactive bands were detected by enhanced chemiluminescence reagent (Pierce, Rockford, Ill.). Blots were reprobed with an anti-β-actin goat polyclonal antibody (Santa Cruz Biotechnology) to control for protein loading and transfer. Densitometric values of protein bands were quantified using Scion Imaging Software (Scion Corp., Frederick, Md.).

CCCCCC=CCC=CCC=CCCCCC(=O)O [GLA, 6,9,12-octadecatrienoic acid]
Luciferase activity relative to vehicle-treated wild-type promoter cells ([1]; BT-474): 12% (95% CI = 9-15%) | Luciferase activity relative to vehicle-treated wild-type promoter cells ([1]; MDA-MB-231): 61% (95% CI = 59-63%) | Luciferase activity relative to vehicle-treated wild-type promoter cells ([1]; MDA-MB-453): 11% (95% CI = 3-19%) | Luciferase activity relative to vehicle-treated wild-type promoter cells ([1]; NCI-N87): 19% (95% CI = 12-26%) | Luciferase activity relative to vehicle-treated wild-type promoter cells ([1]; SK-Br3): 21% (95% CI = 18-24%) | Luciferase activity relative to vehicle-treated wild-type promoter cells ([1]; SK-OV3): 14% (95% CI = 6-22%) | levels of PEA3 protein (PEA3; BT-474 and SK-Br3, GLA 10 μg/mL for 48 hours): increase | levels of PEA3 protein (PEA3; MDA-MB-231, GLA exposure): not changed substantially | PEA3 protein expression (PEA3; MDA-MB-453, SK-OV3 and NCI-N87, GLA 10 μg/mL for 48 hours): increased

CCCCCCCCC=CCCCCCCCC(=O)O [OA, 9-octadecenoic acid]
regulation of luciferase reporter driven by promoter with mutated PEA3 site ([1]; OA-supplemented SK-Br3, SK-OV3 and NCI-N87 cells): not subject to negative regulation | PEA3 protein levels (PEA3; MCF-7/neo cells, OA supplementation): not significantly affected | PEA3 protein expression (PEA3; SK-Br3, SK-OV3 and NCI-N87, OA 20 μM, 48 hours): significant up-regulation
